Test results taken from article PMC6279743, “A small molecule ApoE4-targeted therapeutic candidate that normalizes sirtuin 1 levels and improves cognition in an Alzheimer’s disease mouse model” (Scientific Reports, 2018).
“Also recorded” adds a separate entry of the source. Like-named read-outs stand apart in the source and are kept apart here.

What was measured:
[1] = Pharmacokinetics after oral delivery in mice; format: in vivo; conditions: oral 10 mg/kg; for Tmax / AUC: mouse; for Tmax: brain, n = 1 per time point; for AUC: plasma; for AUC / AUC brain: 1-8 hours
Description: All in vivo experiments described were carried out in strict accordance with good animal practice according to NIH recommendations. All procedures for animal use were approved by the Animal Research Committee (ARC) at UCLA and under an approved ARC protocol. Pharmacokinetic (PK) analysis[68]–[70] consisted of oral delivery of compounds (10 mg/Kg) to individual mice followed by euthanasia at 1, 2, 4, 6, and 8 hours post-dose by ketamine/xylazine over-anesthesia, blood collection by cardiac puncture, and transcardial saline perfusion. Whole blood was centrifuged at 5000 rpm for 10 min. in a 5 °C centrifuge to isolate plasma and the plasma stored at −20 °C before analysis. Whole brains were collected, dissected down the midline, snap frozen on dry ice, and stored at −80 °C before analysis. The levels of the compounds in both plasma and brain tissue were determined by a quantitative LC/MS/MS methodology at Integrated Analytical Solutions (IAS, Berkeley, CA). Plasma samples were precipitated with an acetonitrile: methanol (1:1) cocktail containing an internal standard. Brain samples were homogenized directly in ethyl acetate by the liquid-liquid method. The resulting supernatant was evaporated to dryness and subjected to LC/MS/MS analysis. The Tmax, Cmax, brain-to-plasma ratios and brain levels were then calculated using PK Solutions software (SummitPK).

[2] = system: SirT1 levels in N2a-E4 cells; assay: SirT1 AlphaLISA in N2a-E4 cells (HTS, secondary and dose-response testing); format: cell-based, murine; conditions: for SirT1 increase, racemate vs enantiomers: 5 and 50 μM, n = 3 wells; for Dose-response increase in SirT1 in secondary testing: N2a-E4 cells, 1, 5 and 10 μM; for SirT1 level in HTS: 24 hrs, NIH Clinical Collection screen, A03 5 μM as positive control
Description: For HTS we tested a portion of the UCLA compound library (10 plates) including the NIH Clinical Collection library (3 plates). Complete medium (25 µL) was added to each well of 384-well plates, then library compounds were added (250 nL) followed by a suspension of 4 × 10^5 cells/mL murine neuroblastoma N2a cells (25 μL) stably transfected with ApoE4 (N2a-E4). After incubation of the N2a-E4 cells with compounds for 24 hrs at 37 °C and 5% CO2, all but ~6 μL of medium were removed and AlphaLISA Lysis Buffer complemented with HALT protease/phosphatase inhibitor (20 μL, 1X final) was added to each well. To maximize lysis, the plates were frozen at −80 °C. For the AlphaLISA, lysates were thawed and vortexed for 1 min at 3000 rpm.
The AlphaLISA comprises streptavidin donor beads, biotinylated anti-SirT1 N-terminal antibody (19A7AB4), and acceptor beads conjugated to the anti-SirT1 C-terminal antibody (1F3); when the target protein is bound by both antibodies, the beads are in close enough proximity for a transfer of ^1O2 and emission of a detectable signal (Supplementary Fig. S3). For the AlphaLISA, a 384-proxy plate was preloaded with AlphaLISA buffer (2 µL, 1X) with HALT (1X), then cell lysate (2 μL) was transferred to the proxy plate followed by the antibody-mix (2 μL). After incubation at room temperature for 1 hr, the donor bead mixture was added (2 µL) and incubated for an additional 30 min. The plates were then read in an Envision plate reader. All points are one replicate. The standard curve is generated by serial dilution of recombinant SirT1 to assess the linear range of the assay; study samples undergo serial dilution as well. We use A03 as a positive control in the HTS assay. The Z-value, while not ideal, was <1 for the assay (Supplementary Fig. S3).
Compound in medium (50 µL, 2X) was loaded into a 96-well plate, then 4 × 10^4 cells were added to each well; 24 hrs later the medium was removed and cells lysed. Lysate protein concentration was determined using the Bradford assay according to the manufacturer’s instructions. SirT1 was determined in lysates using the SirT1 AlphaLISA as described above.

[3] = Parallel Artificial Membrane Permeability Assay (PAMPA; IAM column); format: in vitro ADME; conditions: for retention time (Tr) in PAMPA: IAM.PC.DD2 column, acetonitrile:PBS (pH 5.6) 35:65; for KIAM: KIAM = (Tr-T0)/T0, T0 = 1.24 min; for (KIAM/MW^4) * 10^−(10): MW 255.74 g/mol
Description: We used L(+)tartaric acid to isolate the L-enantiomer salt and D(-) tartaric acid to isolate the D-enantiomer salt, followed by neutralization of the salt with NaOH and re-crystallization to obtain the enantiomers. Enantiomer abundance (Supplementary Fig. S4) was determined by HPLC using a Chiralpak IB column. Isopropanol (0.2% diethylamine)/hexanes was used for gradient elution with 5–50% isopropanol (0.2% diethylamine) for 11 min, a Chiralpak IB column, and with sample (1 μL, 1.25 mg/mL) injection, 220 nm wavelength detection, and a flow rate of 1 mL/min. […] The L-alanine analog co-elutes with enantiomer-1 while the D-alanine analog co-elutes with enantiomer-2. Analysis of the enantiomers and A03 in the Parallel Artificial Membrane Permeability Assay (PAMPA) was performed and is described in Supplementary Methods. […]
PAMPA. An IAM.PC.DD2 Regis Technologies analytical (10 cm x 4.6 mm) column wherein phospholipid is bonded on 10 μm, 300 Å, spherical aminopropyl silica and end capped with C10 and C3 amides was used to determine membrane permeability of A03, E1 and E2. An isocratic method was used with a mobile phase comprising acetonitrile:PBS (pH 5.6) equal to 35:65, an injection volume of 5 µL, and a flow rate of 1 mL/min. The parameters determined are Tr = retention time of compound; KIAM= (Tr-T0)/T0; T0= is the delay time of the column, determined by use of 100 µg/mL citric acid) and was T0= 1.24 min; and (KIAM/MW4)*10-(10). The molecular weight of all three compounds was 255.74 g/mol. […]
Supplementary Fig. S1. […] (a) Transient transfection with either
ApoE3 or E4 decreased SirT1 levels as compared to empty vector (Pc/DMSO), but the decrease was greater with […]

humans = system: humans; design: method as in PMID 22616762; conditions: cited from earlier work
[4] = Brain compound levels 2 hours after the last dose in efficacy studies; format: in vivo, mice; conditions: pilot study, SQ 10 mg/kg/day, 28 days, n = 8
Description: Mice were euthanized and blood/tissues collected 2 hrs after dosing on day 28 by the method described above for PK. Frontal and parietal cortices (FrCx and PtCx, respectively), as well as the remaining brain tissue, from individual mice were dissected, snap frozen on dry ice, and stored at −80 °C. Plasma samples and the brain tissue minus the FrCx and PtCx (the ‘rest’) from all compound-treated mice were sent to IAS for compound level analysis as described above.
Mice were euthanized and blood/tissues collected 2 hrs after dosing on Day 25 by the method described above for PK. FrCx, PtCx, and hippocampi (Hip) were collected from all mice for SirT1 and sAPPα level determination by AlphaLISA. Protein concentration was determined using a Bradford protein assay. Brain and plasma levels of A03 were determined at IAS.
Mice were euthanized and blood/tissues collected 2 hrs after dosing on Day 56 by the method described above for PK. Hip and FrCx were collected for analysis of SirT1, sAPPα, and Aβ1-42 levels by AlphaLISA. For Aβ1-42 the Perkin Elmer kit AL276C was used. Protein concentrations were determined using the Bradford protein assay. The sAPPα and sAPPβ AlphaLISAs were similar to the SirT1 AlphaLISA (see Supplementary Fig. S3) but the former uses anti-sAPPα antibody AF1168 and 2B3-biotinylated antibodies and the latter an anti-sAPPβ antibody (IBL Cat. #18957) and an anti-N-terminal APP antibody (R&D Systems AF1168) instead of anti-SirT1 antibodies. Brain tissue and plasma were sent to IAS for A03 level analysis.

[5] = Pharmacokinetics after subcutaneous (SQ) injection in mice; format: in vivo; conditions: mouse, mice, SQ 10 mg/kg; for Cmax: brain, n = 1, read-out: Cmax in brain
[6] = secondary assay, N2a-E4 cells, n = 6 wells

For C[C@@H](N)C(=O)OC(C)(C)Cc1ccc(Cl)cc1 [E2], the Tmax [1] was 1 h, the AUC [1] was 104 ng·h/mL and the AUC brain [1] was 806 ng·h/g. For the same compound, the “SirT1 increase, racemate vs enantiomers” value ([2]; N2a-E4 cells) was “shows lower potency”, the “retention time (Tr) in PAMPA” value [3] was 3.31 and the KIAM [3] was 1.67. The “(KIAM/MW^4) * 10^−(10)” value [3] was 3.90.

For Cc1nc(-c2cccnc2)sc1C(=O)Nc1ccccc1-c1cn2c(CN3CCOCC3)csc2n1 [SRT2104], the “Tolerability after single and multiple oral dosing” value (humans) is listed as “well tolerated”.

With CNCCC(Oc1ccc(C(F)(F)F)cc1)c1ccccc1 (centres unmarked) [fluoxetine, reference compound] the “Dose-response increase in SirT1 in secondary testing” value [2] was “neither fluoxetine nor memantine (Fig. 3a) elicited a dose-response increase in SirT1”, the “SirT1 level in HTS” value ([2]; N2a-E4 cells) was “neither fluoxetine nor memantine enhanced SirT1” and the “SirT1 increase vs DMSO control at 1 μM” value [2, 6] was “only A03 and memantine at 1 μM elicited modest but significant increases”.

For CC12CC3CC(C)(C1)CC(N)(C3)C2 [memantine, reference compound], the “Dose-response increase in SirT1 in secondary testing” value [2] was “neither fluoxetine nor memantine (Fig. 3a) elicited a dose-response increase in SirT1”, the “SirT1 level in HTS” value ([2]; N2a-E4 cells) was “neither fluoxetine nor memantine enhanced SirT1” and the “SirT1 increase vs DMSO control at 1 μM” value [2, 6] was “modest but significant increases”. For the same compound, the “SirT1 increase vs DMSO control at 5 and 10 μM” value ([2]; secondary assay, N2a-E4 cells, 5 and 10 μM, n = 6 wells) was “not at 5 or 10 μM”.

C[C@H](N)C(=O)OC(C)(C)Cc1ccc(Cl)cc1 [E1] showed a Tmax [1] of 1 h, an AUC [1] of 86 ng·h/mL and an AUC brain [1] of 850 ng·h/g. For the same compound, the “Brain levels 2 hours after the last dose, E1 vs A03” value [4] was “slightly lower”, the Cmax ([5]; sc) was ~5600 ng/g and the Cmax ([5]; subcutaneous) was ~5800 ng/g. The AUC ([5]; plasma, sc) was 657 ng·h/mL, the “SirT1 increase, racemate vs enantiomers” value ([2]; N2a-E4 cells) was “more effective in increasing SirT1 in vitro compared to the optical antipode E2; also recorded: increase SirT1 in N2a-E4 with high significance” and the “retention time (Tr) in PAMPA” value [3] was 3.3. For the same compound, the KIAM [3] was 1.66 and the “(KIAM/MW^4) * 10^−(10)” value [3] was 3.88.
